Assay results reported in patent publication US20230312587A1, “PTERIDINONE COMPOUNDS AND USES THEREOF” (Vertex Pharmaceutical Incorporated, priority 2018, published 2023).
Where two headings read alike, the source gives them in different places.

Test system: β-catenin-TCF-mediated reporter transcription activity in Colo 205 cells
Test: Colo 205 reporter assay (TCF/LEF luciferase)
Type: cell-based
Conditions: Colo 205 TCF/LEF luciferase reporter, read-out: TCF reporter Colo205 IC50
Procedure, shortened: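 Luciferase signal from a TCF/LEF-driven reporter, stably integrated in Colo 205 colon cancer cells, was measured 5 h after compound addition.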

[1] = Homo sapiens, COLO 205, 5 h, five hours after addition of compound

SMILES	IC50 [1]	other results
Cc1nc(NC2CN(C(=O)c3ccc(OCC(F)(F)F)nc3)C2)nc2c1NC(=O)[C@H](C(C)C)N2C [Compound 615, (S)-7-isopropyl-4,8-dimethyl-2-((1-(6-(2,2,2-trifluoroethoxy)nicotinoyl)azetidin-3-yl)amino)-7,8-dihydropteridin-6(5H)-one]	300 to 1000 nM	
C=C(C)c1nc(C(F)(F)F)ccc1Cn1cc(CNc2nc(C)c3c(n2)N(C)[C@@H](C)C(=O)N3)cn1 [Compound 387, (7S)-4,7,8-Trimethyl-2-(((1-((2-(prop-1-en-2-yl)-6-(trifluoromethyl)pyridin-3-yl)methyl)-1H-pyrazol-4-yl)methyl)amino)-7,8-dihydropteridin-6(5H)-one]	< 300 nM	
Cc1nc(N[C@H](C)c2cnn(Cc3ccc(C(F)(F)F)nc3)c2)nc2c1NC(=O)[C@H](C)N2C [Compound 217, (7S)-4,7,8-Trimethyl-2-(((R)-1-(1-((6-(trifluoromethyl)pyridin-3-yl)methyl)-1H-pyrazol-4-yl)ethyl)amino)-7,8-dihydropteridin-6(5H)-one]	≥ 5000 nM	
C[C@H]1C(=O)Nc2cnc(N[C@H]3C[C@H](Oc4cc(F)c(F)c(F)c4)C3)nc2N1C [Compound 249, (7S)-7,8-dimethyl-2-((trans-3-(3,4,5-trifluorophenoxy)cyclobutyl)amino)-7,8-dihydropteridin-6(5H)-one]	< 300 nM	
Cc1nc(N[C@H]2C[C@@H](NCc3cc(F)c(F)c(F)c3)C2)nc2c1NC(=O)[C@H](C(C)C)N2C [Compound 536, (S)-7-isopropyl-4,8-dimethyl-2-((cis-3-((3,4,5-trifluorobenzyl)amino)cyclobutyl)amino)-7,8-dihydropteridin-6(5H)-one]	< 300 nM	
Cc1nc(N[C@H]2C[C@@H](Nc3ccc(OC(F)(F)F)cn3)C2)nc2c1NC(=O)[C@H](C)N2C [Compound 577, (S)-4,7,8-trimethyl-2-((cis-3-((5-(trifluoromethoxy)pyridin-2-yl)amino)cyclobutyl)amino)-7,8-dihydropteridin-6(5H)-one]	300 to 1000 nM	
Cc1nc(NCc2cnn(C3CCC(c4ccc(F)cc4)C3)c2)nc2c1NC(=O)[C@H](C)N2C (stereo partly drawn) [Compound 137, (7S)-2-(((1-(3-(4-fluorophenyl)cyclopentyl)-1H-pyrazol-4-yl)methyl)amino)-4,7,8-trimethyl-7,8-dihydropteridin-6(5H)-one]	< 300 nM	
CO[C@H](C)[C@H]1C(=O)Nc2c(C)nc(N[C@H]3C[C@H](n4ccc(C(F)(F)F)n4)C3)nc2N1C [Compound 731, (S)-7-((R)-1-methoxyethyl)-4,8-dimethyl-2-((trans-3-(3-(trifluoromethyl)-1H-pyrazol-1-yl)cyclobutyl)amino)-7,8-dihydropteridin-6(5H)-one]	≥ 5000 nM	
Cc1nc(N[C@H]2CO[C@H](COc3cc(F)c(F)c(F)c3)C2)nc2c1NC(=O)[C@H](C)N2C [Compound 301, (7S)-4,7,8-trimethyl-2-(((3R,5S)-5-((3,4,5-trifluorophenoxy)methyl)tetrahydrofuran-3-yl)amino)-7,8-dihydropteridin-6(5H)-one]		IC50 (five hours after addition of compound): < 300 nM
Cc1nc(N[C@H]2C[C@H](Nc3nccc(C(F)(F)F)n3)C2)nc2c1NC(=O)[C@H](C(C)C)N2C [Compound 529, (S)-7-isopropyl-4,8-dimethyl-2-((trans-3-((4-(trifluoromethyl)pyrimidin-2-yl)amino)cyclobutyl)amino)-7,8-dihydropteridin-6(5H)-one]	1000 to 5000 nM	
Cc1nc(N[C@H]2C[C@H](NC(=O)Cn3ccc(C(F)(F)F)n3)C2)nc2c1NC(=O)[C@H](C(C)C)N2C [Compound 554, N-(trans-3-(((S)-7-isopropyl-4,8-dimethyl-6-oxo-5,6,7,8-tetrahydropteridin-2-yl)amino)cyclobutyl)-2-(3-(trifluoromethyl)-1H-pyrazol-1-yl)acetamide]	1000 to 5000 nM	
Cc1nc(NCc2cnn(Cc3ccc(C(C)(C)C)nc3)c2)nc2c1NC(=O)[C@H](C)N2C [Compound 211, (7S)-2-(((1-((6-(tert-butyl)pyridin-3-yl)methyl)-1H-pyrazol-4-yl)methyl)amino)-4,7,8-trimethyl-7,8-dihydropteridin-6(5H)-one]	300 to 1000 nM	
Cc1nc(N[C@H]2C[C@@H](Nc3cc(F)c(F)c(F)c3)C2)nc2c1NC(=O)[C@H](C)N2C [Compound 485, (S)-4,7,8-trimethyl-2-((cis-3-((3,4,5-trifluorophenyl)amino)cyclobutyl)amino)-7,8-dihydropteridin-6(5H)-one]	< 300 nM	
Cc1nc(NCc2cnn(Cc3cc(C(F)(F)F)n(C)n3)c2)nc2c1NC(=O)[C@H](C)N2C [Compound 190, (7S)-4,7,8-trimethyl-2-(((1-((1-methyl-5-(trifluoromethyl)-1H-pyrazol-3-yl)methyl)-1H-pyrazol-4-yl)methyl)amino)-7,8-dihydropteridin-6(5H)-one]	300 to 1000 nM	
Cc1nc(NCc2cnn(C3CCN(C(=O)c4cc(F)c(F)c(F)c4)CC3)c2)nc2c1NC(=O)[C@H](C)N2C [Compound 124, (7S)-4,7,8-Trimethyl-2-(((1-(1-(3,4,5-trifluorobenzoyl)piperidin-4-yl)-1H-pyrazol-4-yl)methyl)amino)-7,8-dihydropteridin-6(5H)-one]	300 to 1000 nM	
Cc1nc(N[C@@H]2CC[C@@H](N(C)c3ccc(C(F)(F)F)cc3)C2)nc2c1NC(=O)[C@H](C(C)C)N2C [Compound 504, (S)-7-isopropyl-4,8-dimethyl-2-(((1R,3R)-3-(methyl(4-(trifluoromethyl)phenyl)amino)cyclopentyl)amino)-7,8-dihydropteridin-6(5H)-one]	300 to 1000 nM	
Cc1nc(C(=O)N2CC(Nc3nc(C)c4c(n3)N(C)[C@@H](C(C)C)C(=O)N4)C2)co1 [Compound 610, (S)-7-isopropyl-4,8-dimethyl-2-((1-(2-methyloxazole-4-carbonyl)azetidin-3-yl)amino)-7,8-dihydropteridin-6(5H)-one]	≥ 5000 nM	
CC(C)c1cccc(Cn2cc(CNc3ncc4c(n3)N(C)[C@@H](C)C(=O)N4)cn2)c1 [Compound 81, (7S)-2-(((1-(3-isopropylbenzyl)-1H-pyrazol-4-yl)methyl)amino)-7,8-dimethyl-7,8-dihydropteridin-6(5H)-one]	< 300 nM	
Cc1nc(NCc2cnn(Cc3ccc(F)cc3C#N)c2)nc2c1NC(=O)[C@H](C)N2C [Compound 64, (7S)-5-fluoro-2-((4-(((4,7,8-trimethyl-6-oxo-5,6,7,8-tetrahydropteridin-2-yl)amino)methyl)-1H-pyrazol-1-yl)methyl)benzonitrile]	< 300 nM	
Cc1nc(N[C@H]2C[C@@H](Nc3cccc(C(F)(F)F)n3)C2)nc2c1NC(=O)[C@H](C(C)C)N2C [Compound 532, (S)-7-isopropyl-4,8-dimethyl-2-((cis-3-((6-(trifluoromethyl)pyridin-2-yl)amino)cyclobutyl)amino)-7,8-dihydropteridin-6(5H)-one]	300 to 1000 nM	
Cc1nc(NCc2cnn(Cc3ccc(C#N)cc3)c2)nc2c1NC(=O)[C@H](C)N2C [Compound 55, (7S)-4-((4-(((4,7,8-trimethyl-6-oxo-5,6,7,8-tetrahydropteridin-2-yl)amino)methyl)-1H-pyrazol-1-yl)methyl)benzonitrile]	< 300 nM	
CC[C@H]1C(=O)Nc2cnc(NCc3cnn(Cc4ccc(C(F)(F)F)nc4)c3)nc2N1C(C)C [Compound 497, (7S)-7-ethyl-8-isopropyl-2-(((1-((6-(trifluoromethyl)pyridin-3-yl)methyl)-1H-pyrazol-4-yl)methyl)amino)-7,8-dihydropteridin-6(5H)-one]	300 to 1000 nM	
Cc1nc(NCc2cnn(Cc3ccc(C(F)(F)F)nc3)c2)nc2c1NC(=O)[C@@H](C)N2C [Compound I-1636]		IC50 (Homo sapiens, COLO 205, 5 h, R-isomer at C2 (corresponding to C2 S-isomer), 5 h): 1000 to 5000 nM
Cc1nc(N[C@H]2C[C@@H](COc3ccc(OC(F)(F)F)nc3)C2)nc2c1NC(=O)[C@H](C(C)C)N2C [Compound 598, (S)-7-isopropyl-4,8-dimethyl-2-((cis-3-(((6-(trifluoromethoxy)pyridin-3-yl)oxy)methyl)cyclobutyl)amino)-7,8-dihydropteridin-6(5H)-one]	< 300 nM	
CCN1C(=O)C(C)(C)N(CC)c2nc(NCc3cnn(Cc4cc(F)c(F)c(F)c4)c3)ncc21 [Compound 231, 5,8-diethyl-7,7-dimethyl-2-(((1-(3,4,5-trifluorobenzyl)-1H-pyrazol-4-yl)methyl)amino)-7,8-dihydropteridin-6(5H)-one]	< 300 nM	
C[C@H]1C(=O)Nc2cnc(NCc3ccc(-c4ccc(F)cc4)o3)nc2N1C [Compound 43, (7S)-2-(((5-(4-fluorophenyl)furan-2-yl)methyl)amino)-7,8-dimethyl-7,8-dihydropteridin-6(5H)-one]	≥ 5000 nM	
COc1cc(Cn2cc(CNc3nc(C)c4c(n3)N(C)[C@@H](C)C(=O)N4)cn2)cnc1C(F)(F)F [Compound 213, (7S)-2-(((1-((5-methoxy-6-(trifluoromethyl)pyridin-3-yl)methyl)-1H-pyrazol-4-yl)methyl)amino)-4,7,8-trimethyl-7,8-dihydropteridin-6(5H)-one]	< 300 nM	
Cc1nc(NCc2cnn(C3CCN(c4cc(F)cc(F)c4)CC3)c2)nc2c1NC(=O)[C@H](C)N2C [Compound 179, (7S)-2-(((1-(1-(3,5-difluorophenyl)piperidin-4-yl)-1H-pyrazol-4-yl)methyl)amino)-4,7,8-trimethyl-7,8-dihydropteridin-6(5H)-one]	< 300 nM	
Cc1ccc(O[C@H]2C[C@H](Nc3nc(C)c4c(n3)N(C)[C@@H](C)C(=O)N4)C2)cc1 [Compound 339, (7S)-4,7,8-trimethyl-2-((trans-3-(p-tolyloxy)cyclobutyl)amino)-7,8-dihydropteridin-6(5H)-one]	300 to 1000 nM	
COC1(C2C(=O)Nc3c(C)nc(NCc4cnn(Cc5cc(F)c(F)c(F)c5)c4)nc3N2C)CCC1 (stereo not drawn) [Compound 668, 7-(1-methoxycyclobutyl)-4,8-dimethyl-2-(((1-(3,4,5-trifluorobenzyl)-1H-pyrazol-4-yl)methyl)amino)-7,8-dihydropteridin-6(5H)-one]	< 300 nM	
